± gives the expanded uncertainty stated by the source.

A short description of the series: activity coefficient (dimensionless); of the first substance listed, at infinite dilution; xn = mol fraction of the nth substance listed. The following applies: 101 kPa, Liquid, Chromatography, x1 = 0.

`ClC(Cl)(Cl)Cl` [tetrachloromethane] + CCCCn1cc[n+](C)c1.O=S(=O)([N-]S(=O)(=O)C(F)(F)C(F)(F)F)C(F)(F)C(F)(F)F: the activity coefficient (322.55 K) is 2.4 ± 0.16, the activity coefficient (342.75 K) came to 2.35 ± 0.16 and the activity coefficient (362.65 K) turned out to be 2.33 ± 0.16.

Regarding `ClC(Cl)(Cl)Cl` [tetrachloromethane] + CCn1cc[n+](C)c1.CS(=O)(=O)[O-], the activity coefficient by setting is: (312.55 K) 4.57 ± 0.31; (322.45 K) 4.79 ± 0.33; (332.45 K) 0.669 ± 0.045.

As for `CCCCCCCCCCCCCC` [tetradecane] + CCCCn1cc[n+](C)c1.O=S(=O)([N-]S(=O)(=O)C(F)(F)C(F)(F)F)C(F)(F)C(F)(F)F, the activity coefficient turned out to be 153 ± 11 (322.55 K), 113 ± 7.7 (342.75 K) and 91.5 ± 6.3 (362.65 K).

Regarding `CCCCCCCCCCCCCC` [tetradecane] + CCn1cc[n+](C)c1.CS(=O)(=O)[O-], the activity coefficient (312.55 K) was 4070 ± 280, the activity coefficient (322.45 K) was 4000 ± 280 and the activity coefficient (332.45 K) stood at 3830 ± 260.

As to `c1ccsc1` [thiophene] + CCCCCCCCCCn1cc[n+](CCCCCCCCCC)c1C.O=S(=O)([N-]S(=O)(=O)C(F)(F)F)C(F)(F)F, the activity coefficient (323.1 K) came out at 0.422 ± 0.035, the activity coefficient (333.15 K) came to 0.423 ± 0.035 and the activity coefficient (343.15 K) came to 0.424 ± 0.035.

Regarding `c1ccsc1` [thiophene] + CCCCCC[n+]1ccn(C)c1.FC(F)(F)C(F)(F)[P-](F)(F)(F)(C(F)(F)C(F)(F)F)C(F)(F)C(F)(F)F, the activity coefficient runs as follows: (312.8 K) 0.577 ± 0.041; (332.85 K) 0.602 ± 0.042; (354.65 K) 0.604 ± 0.042.

Regarding `c1ccsc1` [thiophene] + CCCCn1cc[n+](C)c1.O=S(=O)([N-]S(=O)(=O)C(F)(F)C(F)(F)F)C(F)(F)C(F)(F)F, the activity coefficient is, setting by setting: (322.55 K) 0.977 ± 0.061; (342.75 K) 0.973 ± 0.061; (362.65 K) 0.981 ± 0.062.

For the molecule `c1ccsc1` [thiophene] + CCn1cc[n+](C)c1.CS(=O)(=O)[O-], the activity coefficient amounted to 1.87 ± 0.13 (312.55 K), 1.91 ± 0.13 (322.45 K) and 1.95 ± 0.13 (332.45 K).

For `Cc1ccccc1` [toluene] + CCCCCCCCCCn1cc[n+](CCCCCCCCCC)c1C.O=S(=O)([N-]S(=O)(=O)C(F)(F)F)C(F)(F)F, the activity coefficient runs as follows: (323.1 K) 0.512 ± 0.038; (333.15 K) 0.52 ± 0.039; (343.15 K) 0.527 ± 0.039.

As for `Cc1ccccc1` [toluene] + CCCCCC[n+]1ccn(C)c1.FC(F)(F)C(F)(F)[P-](F)(F)(F)(C(F)(F)C(F)(F)F)C(F)(F)C(F)(F)F, the activity coefficient by setting is: (312.8 K) 0.674 ± 0.046; (332.85 K) 0.727 ± 0.048; (354.65 K) 0.753 ± 0.05.

With `Cc1ccccc1` [toluene] + CCCCn1cc[n+](C)c1.O=S(=O)([N-]S(=O)(=O)C(F)(F)C(F)(F)F)C(F)(F)C(F)(F)F, the activity coefficient turned out to be 1.4 ± 0.091 (322.55 K), 1.42 ± 0.093 (342.75 K) and 1.46 ± 0.096 (362.65 K).

For the molecule `ClC(Cl)Cl` [trichloromethane] + CCCCCCCCCCn1cc[n+](CCCCCCCCCC)c1C.O=S(=O)([N-]S(=O)(=O)C(F)(F)F)C(F)(F)F, the activity coefficient runs as follows: (323.1 K) 0.374 ± 0.033; (333.15 K) 0.395 ± 0.034; (343.15 K) 0.402 ± 0.034.

Consider `ClC(Cl)Cl` [trichloromethane] + CCCCCC[n+]1ccn(C)c1.FC(F)(F)C(F)(F)[P-](F)(F)(F)(C(F)(F)C(F)(F)F)C(F)(F)C(F)(F)F, for which the activity coefficient (312.8 K) was found to be 1.09 ± 0.069, the activity coefficient (332.85 K) turned out to be 1.09 ± 0.069 and the activity coefficient (354.65 K) is 1.05 ± 0.066.

In the case of `ClC(Cl)Cl` [trichloromethane] + CCCCn1cc[n+](C)c1.O=S(=O)([N-]S(=O)(=O)C(F)(F)C(F)(F)F)C(F)(F)C(F)(F)F, the activity coefficient by setting is: (322.55 K) 0.613 ± 0.043; (342.75 K) 0.74 ± 0.049; (362.65 K) 0.79 ± 0.051.

Take `ClC(Cl)Cl` [trichloromethane] + CCn1cc[n+](C)c1.CS(=O)(=O)[O-]: the activity coefficient by setting is: (312.55 K) 0.563 ± 0.04; (322.45 K) 0.479 ± 0.037; (332.45 K) 1.42 ± 0.093.

For `CCCCCCCCCCCCC` [tridecane] + CCCCn1cc[n+](C)c1.O=S(=O)([N-]S(=O)(=O)C(F)(F)C(F)(F)F)C(F)(F)C(F)(F)F, the activity coefficient runs as follows: (322.55 K) 111 ± 7.6; (342.75 K) 78.1 ± 5.3; (363.65 K) 68.9 ± 4.7.

For `CCCCCCCCCCCCC` [tridecane] + CCn1cc[n+](C)c1.CS(=O)(=O)[O-], the activity coefficient runs as follows: (312.55 K) 3380 ± 230; (322.45 K) 3280 ± 230; (332.45 K) 3070 ± 210.

Turning to `CCN(CC)CC` [triethylamine] + CCCCCCCCCCn1cc[n+](CCCCCCCCCC)c1C.O=S(=O)([N-]S(=O)(=O)C(F)(F)F)C(F)(F)F, the activity coefficient (323.1 K) came out at 3.67 ± 0.25, the activity coefficient (333.15 K) stood at 3.17 ± 0.22 and the activity coefficient (343.15 K) was determined as 2.86 ± 0.2.

On to `CCN(CC)CC` [triethylamine] + CCCCCC[n+]1ccn(C)c1.FC(F)(F)C(F)(F)[P-](F)(F)(F)(C(F)(F)C(F)(F)F)C(F)(F)C(F)(F)F, for which the activity coefficient stood at 2.09 ± 0.14 (312.8 K), 1.96 ± 0.13 (332.85 K) and 1.76 ± 0.12 (354.65 K).

Consider `CCN(CC)CC` [triethylamine] + CCCCn1cc[n+](C)c1.O=S(=O)([N-]S(=O)(=O)C(F)(F)C(F)(F)F)C(F)(F)C(F)(F)F, for which the activity coefficient is 2.73 ± 0.19 (322.55 K), 3.61 ± 0.25 (342.75 K) and 3.27 ± 0.22 (362.65 K).

Turning to `CCN(CC)CC` [triethylamine] + CCn1cc[n+](C)c1.CS(=O)(=O)[O-], the activity coefficient is 8.32 ± 0.57 (312.55 K), 14.3 ± 0.98 (322.45 K) and 18.8 ± 1.3 (332.45 K).

For the molecule `CCCCCCCCCCC` [undecane] + CCCCCC[n+]1ccn(C)c1.FC(F)(F)C(F)(F)[P-](F)(F)(F)(C(F)(F)C(F)(F)F)C(F)(F)C(F)(F)F, the activity coefficient (312.8 K) amounted to 31 ± 2.1, the activity coefficient (332.85 K) amounted to 25.5 ± 1.7 and the activity coefficient (354.65 K) amounted to 19.9 ± 1.4.

As to `CCCCCCCCCCC` [undecane] + CCCCn1cc[n+](C)c1.O=S(=O)([N-]S(=O)(=O)C(F)(F)C(F)(F)F)C(F)(F)C(F)(F)F, the activity coefficient reads like this: (322.55 K) 57.3 ± 3.9; (342.75 K) 45.9 ± 3.1; (362.65 K) 37.8 ± 2.6.

Source of the values: the NIST ThermoML archive (doi:10.1021/je200195q).
